Legend:
[1] = biological target: 5-hydroxytryptamine receptor 1B (Homo sapiens, UniProt P28222); test: Displacement of [3H]carboxytryptamine from recombinant human 5-HT1B receptor expressed in HEK cells by scintillation counting; type: cell-based, HEK293
[2] = biological target: 5-hydroxytryptamine receptor 1D (Homo sapiens, UniProt P28221); test: Displacement of [3H]GR125743 from recombinant human 5-HT1D receptor expressed in HEK cells by scintillation counting; type: cell-based, HEK293
5-hydroxytryptamine receptor 1D, sequence (P28221 whole entry): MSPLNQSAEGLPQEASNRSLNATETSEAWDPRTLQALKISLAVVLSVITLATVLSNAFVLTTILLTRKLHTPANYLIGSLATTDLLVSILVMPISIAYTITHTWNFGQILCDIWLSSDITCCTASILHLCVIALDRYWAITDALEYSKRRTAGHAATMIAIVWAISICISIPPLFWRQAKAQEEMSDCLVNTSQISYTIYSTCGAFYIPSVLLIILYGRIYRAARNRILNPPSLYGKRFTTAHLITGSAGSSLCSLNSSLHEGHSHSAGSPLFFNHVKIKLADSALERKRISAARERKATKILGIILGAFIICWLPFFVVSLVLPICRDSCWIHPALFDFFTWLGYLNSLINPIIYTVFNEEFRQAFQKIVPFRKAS

5-hydroxytryptamine receptor 1B, sequence (P28222 whole entry): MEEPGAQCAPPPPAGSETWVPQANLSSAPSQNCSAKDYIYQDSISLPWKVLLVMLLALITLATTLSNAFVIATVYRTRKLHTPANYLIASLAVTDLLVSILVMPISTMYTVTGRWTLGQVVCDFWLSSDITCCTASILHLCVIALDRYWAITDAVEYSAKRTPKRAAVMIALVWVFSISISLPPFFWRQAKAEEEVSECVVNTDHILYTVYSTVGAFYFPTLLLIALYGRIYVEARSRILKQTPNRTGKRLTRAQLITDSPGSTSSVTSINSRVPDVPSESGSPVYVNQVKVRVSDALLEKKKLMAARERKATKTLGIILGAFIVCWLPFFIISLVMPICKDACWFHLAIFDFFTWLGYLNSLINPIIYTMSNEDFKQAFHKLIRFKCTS

## COc1ccc(NC(=O)c2ccc3c(c2)N(C)C(=O)CN3c2ccc(Cl)c(Cl)c2)cc1N1CCN(C)CC1
[1]
  Ki: 120 nM
[2]
  Ki: 44 nM
